From patent publication US7109243B2 (IRM LLC, priority 2003, dated 2006)
Like-named read-outs stand apart in the source and are kept apart here.

Tests used:
Cathepsin S = Cathepsin S (Homo sapiens, UniProt P25774); experiment: Cathepsin S inhibition assay (fluorogenic peptide substrate); assay type: biochemical
Outline: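 Ki values come from nonlinear fitting of inhibited hydrolysis rates, taking free and total inhibitor concentrations as equal. Rates measured as rising fluorescence at 380/450 nm after reaction start with 50 μM final acetyl-HPVK-aminocarbamoylcoumarin.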

Cathepsin K = biological target: T1, Cathepsin K (Homo sapiens, UniProt P43235); experiment: Cathepsin K inhibition assay (fluorogenic peptide substrate); selectivity ratio vs cathepsin S; assay type: biochemical
T1 sequence (P43235 115-329): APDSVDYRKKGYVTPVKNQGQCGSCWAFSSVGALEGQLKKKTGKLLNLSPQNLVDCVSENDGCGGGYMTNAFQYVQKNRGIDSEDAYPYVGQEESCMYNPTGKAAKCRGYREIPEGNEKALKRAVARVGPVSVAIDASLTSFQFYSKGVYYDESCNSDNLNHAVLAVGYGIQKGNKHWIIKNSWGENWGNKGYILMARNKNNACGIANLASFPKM
Outline: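 Fluorogenic kinetic assay, started with acetyl-Lys-His-Pro-Lys-aminocarbamoylcoumarin at 40 μM final, hydrolysis followed at ex 380/em 450 nm. Apparent inhibition constants from progress curves, converted to competitive inhibition constants. Selectivity expressed as isozyme inhibition constant divided by cathepsin S inhibition constant.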

[1] = Table II, compounds of Formula I, read-out: Ki Cat. S
[2] = ratio of cathepsin K inhibition constant to cathepsin S inhibition constant, Table II

Cathepsin S, sequence (P25774 115-331, species assumed): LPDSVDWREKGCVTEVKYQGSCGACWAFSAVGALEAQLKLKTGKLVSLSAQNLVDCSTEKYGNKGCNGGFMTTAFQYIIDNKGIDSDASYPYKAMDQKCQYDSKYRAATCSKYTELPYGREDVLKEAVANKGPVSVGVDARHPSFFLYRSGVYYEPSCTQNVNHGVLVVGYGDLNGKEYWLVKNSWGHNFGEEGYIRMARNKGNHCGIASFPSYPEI

Row | Ki (Cathepsin S; [1]) | Selectivity for Cat. S over Cat. K (Cathepsin K; [2]) | Ki (Cathepsin S; comparison compounds in the art, read-out: Ki (CatS)) | Selectivity for Cat. S over Cat. K (Cathepsin K; comparison compounds in the art, ratio Ki CatK / Ki CatS) | Ki (Cathepsin K; comparison compounds in the art, read-out: Ki (CatK)) | SMILES
1 | < 100 nM | +++ (+++, >1000) |  |  |  | COc1ccc(NCCNC(=O)[C@H](CCC2CCCCC2)NC(=O)c2ccc3ncsc3c2)cc1 [Compound 137, (S)-Benzothiazole-6-carboxylic acid {3-cyclohexyl-1-[2-(4-methoxy-phenylamino)-ethylcarbamoyl]-propyl}-amide]
2 | < 100 nM | ++ (++, >100) |  |  |  | O=C(N[C@@H](CC1CCCCC1)C(=O)NCCNc1ccc(OC(F)(F)F)cc1)c1ccc(-c2ccccc2F)o1 [Compound 212, (S)-5-(2-Fluoro-phenyl)-furan-2-carboxylic acid {2-cyclohexyl-1-[2-(4-trifluoromethoxy-phenylamino)-ethylcarbamoyl]-ethyl}-amide]
3 | < 10000 nM | + (+, >10) |  |  |  | COc1ccc(NCCNC(=O)[C@H](Cc2ccccc2)NC(=O)NCc2cccc(F)c2)cc1 [Compound 96, (S)-2-[3-(3-Fluoro-benzyl)-ureido]-N-[2-(4-methoxy-phenylamino)-ethyl]-3-phenyl-propionamide]
4 | < 1000 nM | ++ (++, >100) |  |  |  | COc1ccc(NCCNC(=O)[C@H](Cc2ccc(Oc3cc(C)cc(C)c3)cc2)NC(=O)c2cccc(C)c2)cc1 [Compound 330, (S)-N-{2-[4-(3,5-Dimethyl-phenoxy)-phenyl]-1-[2-(4-methoxy-phenylamino)-ethylcarbamoyl]-ethyl}-3-methyl-benzamide]
5 | < 100 nM | + (+, >10) |  |  |  | O=C(N[C@@H](CC1CCCCC1)C(=O)NCCNc1ccc(OC(F)(F)F)cc1)c1ccc(-c2cnco2)cc1 [Compound 67, N-(S)-{2-cyclohexyl-1-[2-(4-trifluoromethoxy-phenylamino)-ethylcarbamoyl]-ethyl}-4-oxazol-5-yl-benzamide]
6 | < 100 nM | +++ (+++, >1000) |  |  |  | COc1ccc(NCCNC(=O)[C@H](CC2CCCCC2)NC(=O)c2ccc(OCc3ccccc3)cc2)cc1 [Compound 109, (S)-4-Benzyloxy-N-{2-cyclohexyl-1-[2-(4-methoxy-phenylamino)-ethylcarbamoyl]-ethyl}-benzamide]
7 | < 100 nM | +++ (+++, >1000) |  |  |  | COc1ccc(NCCNC(=O)[C@H](Cc2cccc(Cl)c2)NC(=O)c2ccc(-c3cccc(C(F)(F)F)c3)o2)cc1 [Compound 3, N-((S)-1-(2-(4-methoxyphenylamino)ethylcarbamoyl)-2-(3-chlorophenyl)ethyl)-5-(3-(trifluoromethyl)phenyl)furan-2-carboxamide]
8 | < 1000 nM | ++ (++, >100) |  |  |  | COc1ccc(NCCNC(=O)[C@H](Cc2ccc(-c3ccc(N(C)C)cc3)cc2)NC(=O)c2cccc(C)c2)cc1 [Compound 287, (S)-N-{2-(4′-Dimethylamino-biphenyl-4-yl)-1-[2-(4-methoxy-phenylamino)-ethylcarbamoyl]-ethyl}-3-methyl-benzamide]
9 | < 100 nM | ++ (++, >100) |  |  |  | COc1ccc(NCCNC(=O)[C@H](CC2CCCCC2)NC(=O)c2cnn(-c3ccc(F)cc3)c2C)cc1 [Compound 161, (S)-1-(4-Fluoro-phenyl)-5-methyl-1H-pyrazole-4-carboxylic acid {2-cyclohexyl-1-[2-(4-methoxy-phenylamino)-ethylcarbamoyl]-ethyl}-amide]
10 |  |  | < 1000 nM | <10 | < 100 nM | CC(C)C[C@H](NC(=O)OCc1ccccc1)C(=O)NCCNc1cccc2ccccc12 [reference compound]
11 | < 1000 nM | + (+, >10) |  |  |  | COc1ccc(NCCNC(=O)[C@H](Cc2ccccc2)NC(=O)c2cccc(C)c2Cl)cc1 [Compound 16, (S)-2-Chloro-N-{1-[2-(4-methoxy-phenylamino)-ethylcarbamoyl]-2-phenyl-ethyl}-3-methyl-benzamide]
12 | < 1000 nM | ++ (++, >100) |  |  |  | COc1ccc(NCCNC(=O)[C@H](Cc2ccccc2)NC(=O)c2cccc(-c3csc(C)n3)c2)cc1 [Compound 56, (S)-N-{1-[2-(4-Methoxy-phenylamino)-ethylcarbamoyl]-2-phenyl-ethyl}-3-(2-methyl-thiazol-4-yl)-benzamide]
13 | < 1000 nM | ++ (++, >100) |  |  |  | COc1ccc(NCCNC(=O)[C@H](Cc2ccc(-c3cccc(OC)c3OC)cc2)NC(=O)c2cccc(C)c2)cc1 [Compound 279, (S)-N-{2-(2′,3′-Dimethoxy-biphenyl-4-yl)-1-[2-(4-methoxy-phenylamino)-ethylcarbamoyl]-ethyl}-3-methyl-benzamide]
14 | < 100 nM | +++ (+++, >1000) |  |  |  | COc1ccc(NCCNC(=O)[C@H](CC2CCCCC2)NC(=O)c2ccc(-c3cccc(OC)c3)cc2)cc1 [Compound 172, (S)-3′-Methoxy-biphenyl-4-carboxylic acid {2-cyclohexyl-1-[2-(4methoxy-phenylamino)-ethylcarbamoyl]-ethyl}-amide]
15 | < 10000 nM | + (+, >10) |  |  |  | COc1ccc(NCCNC(=O)[C@H](Cc2ccc(Oc3ccc(N(C)C)cc3)cc2)NC(=O)c2cccc(C)c2)cc1 [Compound 33, (S)-N-{2-[4-(4-Dimethylamino-phenoxy)-phenyl]-1-[2-(4-methoxy-phenylamino)-ethylcarbamoyl]-ethyl}-3-methyl-benzamide]
16 | < 100 nM | ++ (++, >100) |  |  |  | O=C(Cc1cc(F)cc(F)c1)N[C@@H](CC1CCCCC1)C(=O)NCCNc1ccc(F)cc1 [Compound 125, 3-Cyclohexyl-2-(S)-[2-(3,5-difluoro-phenyl)-acetylamino]-N-[2-(4-fluoro-phenylamino)-ethyl]-propionamide]
17 | < 10000 nM | + (+, >10) |  |  |  | COc1ccc(NCCNC(=O)[C@H](Cc2ccccc2)NC(=O)NCc2ccc(F)cc2)cc1 [Compound 91, (S)-2-[3-(4-Fluoro-benzyl)-ureido]-N-[2-(4-methoxy-phenylamino)-ethyl]-3-phenyl-propionamide]
18 | < 100 nM | +++ (+++, >1000) |  |  |  | CS(=O)(=O)c1ccc(C(=O)N[C@@H](CC2CCCCC2)C(=O)NCCNc2ccc(OC(F)(F)F)cc2)s1 [Compound 53, 5-Methanesulfonyl-thiophene-2-carboxylic acid (S)-{2-cyclohexyl-1-[2-(4-trifluoromethoxy-phenylamino)-ethylcarbamoyl]-ethyl}-amide]
19 | < 100 nM | ++ (++, >100) |  |  |  | COc1ccc(NCCNC(=O)[C@H](Cc2ccccc2)NC(=O)Nc2c(C)cccc2C(C)(C)C)cc1 [Compound 102, (S)-2-[3-(2-tert-Butyl-6-methyl-phenyl)-ureido]-N-[2-(4-methoxy-phenylamino)-ethyl]-3-phenyl-propionamide]
20 | < 1000 nM | ++ (++, >100) |  |  |  | O=C(Cc1nnn[nH]1)N[C@@H](CC1CCCCC1)C(=O)NCCNc1ccc(F)cc1 [Compound 297, 3-Cyclohexyl-N-[2-(4-fluoro-phenylamino)-ethyl]-2-(S)-(2-1H-tetrazol-5-yl-acetylamino)-propionamide]
21 | < 1000 nM | ++ (++, >100) |  |  |  | Cc1cc2ncc(C(=O)N[C@@H](CC3CCCCC3)C(=O)NCCNc3ccc(OC(F)(F)F)cc3)c(C)n2n1 [Compound 48, 2,7-Dimethyl-pyrazolo[1,5-a]pyrimidine-6-carboxylic acid (S)-{2-cyclohexyl-1-[2-(4-trifluoromethoxy-phenylamino)-ethylcarbamoyl]-ethyl}-amide]
22 | < 1000 nM | + (+, >10) |  |  |  | COc1ccc(NCCNC(=O)[C@H](Cc2ccccc2)NC(=O)Nc2ccccc2)cc1 [Compound 57, (S)-N-[2-(4-Methoxy-phenylamino)-ethyl]-3-phenyl-2-(3-phenyl-ureido)-propionamide]
23 | < 100 nM | ++ (++, >100) |  |  |  | O=C(N[C@@H](CC1CCCCC1)C(=O)NCCNc1ccc(OC(F)(F)F)cc1)c1ccc(-c2cccc(C(F)(F)F)c2)o1 [Compound 246, (S)-5-(3-Trifluoromethyl-phenyl)-furan-2-carboxylic acid {2-cyclohexyl-1-[2-(4-trifluoromethoxy-phenylamino)-ethylcarbamoyl]-ethyl}-amide]
24 | < 100 nM | ++ (++, >100) |  |  |  | O=C(NCCNc1ccc(F)cc1)[C@H](CC1CCCCC1)NC(=O)[C@H](O)c1ccccc1 [Compound 317, 3-Cyclohexyl-N-[2-(4-fluoro-phenylamino)-ethyl]-2-(S)-(2-(R)-hydroxy-2-phenyl-acetylamino)-propionamide]
25 | < 100 nM | +++ (+++, >1000) |  |  |  | COc1ccc(NCCNC(=O)[C@H](CC2CCCCC2)NC(=O)[C@@H](C)c2ccccc2)cc1 [Compound 192, N-{2-Cyclohexyl-1-(S)-[2-(4-methoxy-phenylamino)-ethylcarbamoyl]-ethyl}-2-(S)-phenyl-propionamide]
26 | < 100 nM | +++ (+++, >1000) |  |  |  | COc1ccc(NCCNC(=O)[C@H](CC2CCCCC2)NC(=O)c2ccc(-c3ccc4c(c3)OCO4)cc2)cc1 [Compound 176, (S)-4-Benzo[1,3]dioxol-5-yl-N-{2-cyclohexyl-1-[2-(4phenylamino)-ethylcarbamoyl]-ethyl}-benzamide]
